{
  "source": "patent US4835185A",
  "about": "“Immunomodulator for improving commercial performance of domestic animals” (Iowa State University Research Foundation, Inc., priority 1987, dated 1989)",
  "key": {"[1]": {"test_system": "cortisol in plasma", "test": "Lamb trials: plasma cortisol", "format": "in vivo, lambs (sheep)", "conditions": "* p<.05", "text": "(§1) The lambs used in Trial 1 consisted of medium-frame crossbred wethers and ewes weighing 26 to 31 kg. The lambs used in Trial 2 consisted of medium-framced crossbred rams weighing 18 to 25 kg. Each animal was raised as a single. The lambs were housed in a temperature controlled room in individual pens with nipple waterers. When received, the lamps were vaccinated for enterotoxemia. They were allowed to adjust to the pens and the environment for 10 days. One day before the trial began, the lambs were sheared and placed on their respective dietary treatments. The lamps were allotted blocking by weight and sex into two dietary treatment groups. Growth and feed consumption were measured bi-weekly. All lamb weights were taken after a 12 to 16 hour fast. The animals were slaughtered at 50 kg in the Iowa State University Meat laboratory facilities at Ames, Iowa. At slaughter, the lamb's internal organs and wool were weighed and sampled, loin eye area and back fat measured, and carcasses separated into fat, lean, and bone.\n(§2) The SMB (soybean meal-containing) and the CGM (corn-gluten-containing) diets (compositions given in Table A) were fed twice per day in quantities ensuring that feed was before the lambs at all times. The diets were calculated to be equivalent to each other with respect to metabolizable protein, ether extract, fiber, and minerals with the exception of calcium and phosphorus. […] The CGM diet was calculated to contain slightly more energy (TDN 81.7 vs. 79.0, NEm 1.88 v. 1.86, Neg. 1.23 vs. 1.22). […] The soybean meal ingredient contained about 3.5 wt % leucine, while the corn gluten meal ingredient contained about 15 wt % leucine. The CGM diet was therefore higher in leucine than the SBM diet, containing an estimated 16 wt % leucine as compared with an estimated 8 wt % leucine based on total crude protein in the diet.\n^(7) Amount of cortisol in plasma (ng/ml)."}, "[2]": {"test": "Lamb trials: growth, feed efficiency, wool and carcass", "format": "in vivo, lambs (sheep)", "text": "as §1, §2\n^(1) Feed ingredients given on wt % basis.\n^(3) Diets containing calcium salt of alphaketoisocaproate (KIC).\n^(1) Statistical analysis: *designates p < .05, a significant\n^(2) Average daily (24 hrs.) gain (kilograms).\n^(3) Kilograms feed per kilogram weight gain.\n^(4) Amount of wool in grams.\n^(5) Amount of back fat in inches.\n^(6) Amount of lean meat in kilograms.\n^(1)- (8) See Table B, except cholesterol data is for lean tissue"}, "[3]": {"test_system": "Plasma Cortisol", "test": "Feedlot steers: plasma cortisol", "format": "in vivo, steers (cattle)", "conditions": "150 days", "text": "Seventy-two medium-frame steers, with an average weight of 578 lbs., were allotted to 12 pens of 6 animals each. A common basal diet was fed ad libitum to all cattle. This consisted of 48.9% cracked corn, 24.4% ground corn cobs, 17.8% expeller Soybean meal, 7.0% molasses (liquid), 1.3% limestone, 0.25% dicalcium phosphate, 2% salt, 0.02% trace mineral premix, and 0.1% vitamin A premix for the first 58 days of the experiment, and was changed to 54.3% cracked corn and 12.8% expeller soybean meal for the remaining 103 days of the experiment. Three pens were assigned to each treatment. The treatments consisted of four levels of Ca-KIC in a pelleted supplement: 0%, 0.02%, 0.07%, and 0.20% of the basal diet (0.05% control pellets, 0.04% KIC pellets, 0.14% KIC pellets, and 0.40% KIC pellets). The pellets were preweighted and top-dressed on the basal diet twice daily. After 58 days, the cattle on the 0.20% KIC were removed from the experiment. The cattle were not implanted with a growth promotant nor were ionophores included in the diet. […] Loin eye area and fat thickness over the loin were measured on each carcass. […]\nKIC was obtained from SOBAC, Paris, France. Zein was purchased from Freeman Industries, Tuckahoe, N.Y. Each experiment was statistically analyzed by analysis of variance with three pens per treatment. […]"}},
  "data": [
    {"smiles": "CC(C)CC(=O)C(=O)O", "note": "[KIC, alpha-ketoisocaproate]", "values": [
      {"measurement": "CORTISOL: amount of cortisol in plasma", "setting": "[1]; Trial 1, CGM diet, 1% KIC (0%: 1.04)", "result": ".65 ng/mL"},
      {"measurement": "CORTISOL: amount of cortisol in plasma", "setting": "[1]; Trial 1, SBM diet, 1% KIC (0%: .99)", "result": ".83 ng/mL"},
      {"measurement": "CORTISOL: amount of cortisol in plasma", "setting": "[1]; Trial 2, CGM diet, 1% KIC (0%: 3.77)", "result": 2.43, "unit": "ng/mL"},
      {"measurement": "CORTISOL: amount of cortisol in plasma", "setting": "[1]; Trial 2, SBM diet, 1% KIC (0%: 2.70)", "result": 2.25, "unit": "ng/mL"},
      {"measurement": "F/G: kilograms feed per kilogram weight gain", "setting": "[2]; Trial 1, CGM diet, 1% KIC (0%: 4.53), * p<.05", "result": 5.20},
      {"measurement": "LEAN: amount of lean meat", "setting": "[2]; Trial 1, CGM diet, 1% KIC (0%: 5.9)", "result": 6.0, "unit": "kilograms"},
      {"measurement": "WOOL: amount of wool", "setting": "[2]; Trial 1, CGM diet, 1% KIC (0%: .158), * p<.05", "result": ".167 grams"},
      {"measurement": "BACK FAT: amount of back fat", "setting": "[2]; Trial 1, CGM diet, 1% KIC (0%: .20)", "result": ".18 inches"},
      {"measurement": "ADG: average daily (24 hrs.) gain", "setting": "[2]; Trial 1, CGM diet, 1% KIC (0%: .37)", "result": ".30 kilograms"},
      {"measurement": "F/G: kilograms feed per kilogram weight gain", "setting": "[2]; Trial 1, SBM diet, 1% KIC (0%: 5.04), * p<.05", "result": 4.82},
      {"measurement": "LEAN: amount of lean meat", "setting": "[2]; Trial 1, SBM diet, 1% KIC (0%: 6.2)", "result": 6.8, "unit": "kilograms"},
      {"measurement": "WOOL: amount of wool", "setting": "[2]; Trial 1, SBM diet, 1% KIC (0%: .176), * p<.05", "result": ".216 grams"},
      {"measurement": "BACK FAT: amount of back fat", "setting": "[2]; Trial 1, SBM diet, 1% KIC (0%: .26)", "result": ".22 inches"},
      {"measurement": "ADG: average daily (24 hrs.) gain", "setting": "[2]; Trial 1, SBM diet, 1% KIC (0%: .33)", "result": ".36 kilograms"},
      {"measurement": "F/G: kilograms feed per kilogram weight gain", "setting": "[2]; Trial 2, CGM diet, 1% KIC (0%: 4.17)", "result": 4.35},
      {"measurement": "LEAN: amount of lean meat", "setting": "[2]; Trial 2, CGM diet, 1% KIC (0%: 6.1)", "result": 5.8, "unit": "kilograms"},
      {"measurement": "WOOL: amount of wool", "setting": "[2]; Trial 2, CGM diet, 1% KIC (0%: .262), * p<.05", "result": ".294 grams"},
      {"measurement": "BACK FAT: amount of back fat", "setting": "[2]; Trial 2, CGM diet, 1% KIC (0%: .29)", "result": ".20 inches"},
      {"measurement": "ADG: average daily (24 hrs.) gain", "setting": "[2]; Trial 2, CGM diet, 1% KIC (0%: .333), * p<.05", "result": ".308 kilograms"},
      {"measurement": "F/G: kilograms feed per kilogram weight gain", "setting": "[2]; Trial 2, SBM diet, 1% KIC (0%: 4.76), * p<.05", "result": 4.17},
      {"measurement": "LEAN: amount of lean meat", "setting": "[2]; Trial 2, SBM diet, 1% KIC (0%: 5.9)", "result": 5.4, "unit": "kilograms"},
      {"measurement": "WOOL: amount of wool", "setting": "[2]; Trial 2, SBM diet, 1% KIC (0%: .213), * p<.05", "result": ".267 grams"},
      {"measurement": "BACK FAT: amount of back fat", "setting": "[2]; Trial 2, SBM diet, 1% KIC (0%: .26)", "result": ".21 inches"},
      {"measurement": "ADG: average daily (24 hrs.) gain", "setting": "[2]; Trial 2, SBM diet, 1% KIC (0%: .304), * p<.05", "result": ".339 kilograms"},
      {"measurement": "Plasma Cortisol", "setting": "[3]; .02% dietary KIC (0%: 4.08)", "result": 3.74, "unit": "µg/dL"},
      {"measurement": "Plasma Cortisol", "setting": "[3]; .07% dietary KIC (0%: 4.08)", "result": 3.2, "unit": "µg/dL"}
    ]}
  ]
}
